Here are results for three substances from article PMC5667506, “Potent and selective inhibition of SH3 domains with dirhodium metalloinhibitors” (Chemical Science, 2015).

Where “and” joins values, the source holds several entries; their conditions need not be identical. Equal entries are not always repeated. Rh2(OAc)3 = dirhodium(II) triacetate, bound to the side-chain carboxylate

Experiment [1] has as its target T1, Lyn SH3 domain (Homo sapiens, UniProt P07948).
T1 construct: The lyn SH3 domain was amplified by PCR using Phusion DNA polymerase; GST (N, cleaved yes); made in house; host or cells: E. coli BL21 (DE3)
In words: ITC binding of metallopeptides to Lyn SH3 domain. The text has this:
The His96 is unique among Src-family sequences, and the His78 appears only in Hck and Lck. Individual amino-acid alterations are the only factors that might distinguish the nearly identical secondary structures and peptide-binding preferences of Src-family SH3 domains (cf. Fig. 1a and b). Based on a Src-family SH3-binding sequence (VSL12),[37] known to bind with similar affinity across Src-family SH3 domains,[38] we made metallopeptides with rhodium in different sites near the beginning of the SH3-binding peptide. […] The optimal metallopeptide, S2E^Rh, bound to Lyn with 6 nM affinity. The accuracy of ITC data is reduced for C values >1000 (C = [protein]/K d). Under these conditions the distribution of data points on the isotherm reduces the precision of the global fit. Since the enthalpic contributions to binding in the formation of the complexes described in this work were high, we were able to use a low protein concentration (4 μM) which ensured that our C values were well below this upper range. […] In broad terms, the thermodynamics—favourable enthalpy and unfavourable entropy—are consistent with previous examinations of peptide–SH3 binding (see Table S1 ^† for thermodynamic data).[39] Moving the location of the rhodium center toward the N-terminus, away from the histidine, led to a drop in binding affinity. The N13D^Rh metallopeptide, a convenient negative control with the rhodium center too far for histidine interactions, binds with micromolar activity, similar to simple SH3 binding of the parent peptide. We conclude that the vast affinity improvement is due to rhodium coordination to unique histidine residue(s).
(§1) All chemical reagents were purchased from Sigma-Aldrich and were used without further purification.
(§2) Peptide synthesis. All peptides were synthesized manually or with an AAPPTEC APEX 396 Automated Multipeptide Synthesizer using standard solid-phase Fmoc protocols.1,2 Peptides were prepared as C-terminal amides using Rink amide MBHA resin (AAPPTEC) and were acetylated at the N-terminus prior to cleavage from the resin. Peptides and metallopeptides were purified by reverse-phase HPLC.
HPLC separation. Reverse-phase HPLC was performed on a Shimadzu CBM-20A instrument with Phenomenex Jupiter 4μ Proteo 90A (250 × 15 mm preparative) and Phenomenex Jupiter 4μ Proteo 90A (250 × 4.6 mm analytical) columns. The columns were eluted with a gradient of acetonitrile in water (10-90%) (flow rates of 8 mL/min and 1 mL/min for preparative and analytical columns, respectively). Trifluoroacetic acid (0.1%) was added to all eluents. […]
(§3) ITC analysis. ITC experiments were carried out on a VP-ITC instrument (MicroCal) at 25 °C. Titrations of 275 μM peptide into 18 μM SH3 domain proteins were used for all titrations, except for the titration of S2ERh into Lyn SH3 domain, where the lower concentrations of 69 µM S2ERh peptide and 4 µM Lyn SH3 were used to attain a c-value for the titration within the accepted limts for ITC experiments ([…]).3
(§4) Heats of dilutions were measured independently for each experiment by titrating 275 μM peptide into buffer (20 mM phosphate buffer, pH 7, 150 mM NaCl, 1 mM EDTA). All experimental data were fitted using a one set of sites binding model in Origin software (MicroCal) except for the data with Hck SH3 domain. With Hck only, the non-peptide specific binding of dirhodium tetraacetate to Hck SH3 domain could not be treated as negligible, despite the very weak interaction (88 µM), due to the larger enthalpy contribution observed for non-specific binding to this SH3 domain, so the titrations of peptide into Hck were fitted using a 2 set of sites binding model where the stoichiometry for the second set of sites was fixed at 2.0. […]
(§5) Mass spectrometry. ESI-MS was performed on a Bruker Daltonics micrOTOF instrument.
Known compounds and proteins. Several metallopeptides (S2ERh, L3ERh, R5ERh, and 13DRh) were reported previously and […]

Experiment [2] has as its target T2, Lck SH3 domain (Homo sapiens, UniProt P06239).
T2 construct: fyn, yes, lck, and src SH3 protein domains were prepared following published procedures; made in house
As to the kind of experiment: ITC binding to Lck SH3 domain. The protocol: All chemical reagents were purchased from Sigma-Aldrich and were used without further purification. […]
as §3, §4
Known compounds and proteins. […]

Experiment [3] deals with T3, Abl SH3 domain (Homo sapiens, UniProt P00519).
T3 construct: The abl SH3 domain was amplified by PCR using Phusion DNA polymerase; GST (N, cleaved yes); made in house; host or cells: E. coli BL21 (DE3)
T3 sequence (P00519 60-121): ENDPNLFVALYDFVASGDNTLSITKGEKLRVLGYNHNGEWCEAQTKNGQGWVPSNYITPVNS
In words: ITC binding to Abl SH3 domain. Here is the method:
as §1, §2
(§6) HPLC separation. Reverse-phase HPLC was performed on a Shimadzu CBM-20A instrument with Phenomenex Jupiter 4μ Proteo 90A (250 × 15 mm preparative) and Phenomenex Jupiter 4μ Proteo 90A (250 × 4.6 mm analytical) columns. The columns were eluted with a gradient of acetonitrile in water (10-90%) (flow rates of 8 mL/min and 1 mL/min for preparative and analytical columns, respectively). Trifluoroacetic acid (0.1%) was added to all eluents.
(§7) FPLC separation. Analytical FPLC was performed on an ÄKTA instrument with Superdex Peptide PE 7.5/300 column. The column was equilibrated with buffer (150 mM NaCl, 50 mM Tris, pH 7.0) at flow rate of 0.2 mL/min.
as §3, §4, §5
(§8) Known compounds and proteins. Several metallopeptides (S2ERh, L3ERh, R5ERh, and 13DRh) were reported previously and were prepared by known protocols;4 alkyne-diazo 3,5 3-azido-7-hydroxycoumarin6 were synthesized following reported procedures; fyn, yes, lck, and src SH3 protein domains were prepared following published procedures.5 Abl, hck, and lyn SH3 domain plasmids were adapted from the previously reported genes;7 the gene templates were obtained from Addgene, ID

Experiment [4] addresses T4, Yes SH3 domain (Homo sapiens, UniProt P07947).
T4 construct: fyn, yes, lck, and src SH3 protein domains were prepared following published procedures; made in house
In words: ITC binding to Yes SH3 domain. Conditions: Yes SH3, ITC. The protocol:
as §1, §2, §6, §7, §3, §4, §5, §8

T1 sequence (P07948 62-121): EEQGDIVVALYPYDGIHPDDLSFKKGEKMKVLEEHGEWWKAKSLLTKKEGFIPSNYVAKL
T2 sequence (P06239 61-121 limits assumed): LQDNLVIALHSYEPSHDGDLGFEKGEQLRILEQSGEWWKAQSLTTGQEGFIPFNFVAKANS
T4 sequence (P07947 91-152 limits assumed): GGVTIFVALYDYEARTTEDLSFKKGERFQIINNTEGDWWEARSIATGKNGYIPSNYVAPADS

Consider “AcVELARRPLPPLPN-NH2 (Ac-VE(Rh2(OAc)3)LARRPLPPLPN-NH2; also: metal complex: Glu2 carboxylate bound to dirhodium(II) triacetate) [S2E^Rh, rhodium(II) metallopeptide made from S2E peptide (Ac…-NH2) and Rh2(tfa)(OAc)3]”, for which the Kd (as a rule, the free concentration of one partner at which half of the binding sites on the other are occupied at equilibrium, for simple one-to-one binding) in experiment [1] (25 °C) was 6 nM and 6.1 nM; in experiment [2] (25 °C), 481 nM; in experiment [3] (25 °C), 5750 nM.
As to “AcVELARRPLPPLPN-NH2 (Ac-VELARRPLPPLPN-NH2; also: Glu2 side-chain carboxylate bound to Rh2(OAc)3) [S2E^Rh, rhodium(II) metallopeptide made from S2E peptide (Ac…-NH2) and Rh2(tfa)(OAc)3]”, the Kd in experiment [4] (25 °C, read-out: SH3 Kd) is 610 nM.
In the case of AcVELARRPLPPLPN-NH2 [S2E^Rh], the Stoichiometry is recorded as 1.1 in experiment [1], 1.1 in experiment [2], 1.5 in experiment [3] and 0.79 in experiment [4]. Moreover, the “-TΔS” value in experiment [1] (25 °C) is 2.7 kcal/mol; in experiment [2] (25 °C), 2.6 kcal/mol; in experiment [3] (25 °C) it was 10.6 kcal/mol; in experiment [4] (25 °C) it was 9.1 kcal/mol. Further, the ΔG in experiment [1] (25 °C) was -11.2 kcal/mol; in experiment [2] (25 °C), -8.6 kcal/mol; in experiment [3] (25 °C) it was -7.1 kcal/mol; in experiment [4] (25 °C), -8.5 kcal/mol. Besides, the ΔH entry in experiment [1] (25 °C) is “–13.9 kcal mol-1”; in experiment [1] (25 °C, listed as S2ERh), -13.9 kcal/mol; in experiment [2] (25 °C) it was -11.2 kcal/mol; in experiment [3] (25 °C) it was -17.8 kcal/mol; in experiment [4] (25 °C), -17.6 kcal/mol.
